{
  "source": "patent US20260373079A1",
  "about": "“USE OF LONG-ACTING FLUTICASONE PROPIONATE INJECTABLE SUSPENSIONS FOR TREATING AND PREVENTING INFLAMMATIONS OF THE GASTROINTESTINAL TRACT” (EUPRAXIA PHARMACEUTICALS INC., priority 2022, published 2026)",
  "origin": "cited, not measured here",
  "key": {"[1]": {"conditions": "for first pass metabolism, relative to fluticasone: in words"}, "[2]": {"conditions": "EoE patients"}, "[3]": {"conditions": "treatment of EoE; subcutaneous; weekly dosing recommended"}},
  "data": [
    {"compound": "C[C@H]1C[C@H]2[C@@H]3CCC4=CC(=O)C=C[C@]4(C)[C@@]3(Cl)[C@@H](O)C[C@]2(C)[C@@]1(O)C(=O)CO", "note": "[beclomethasone]", "values": [
      {"measurement": "first pass metabolism, relative to fluticasone", "setting": "[1]", "value": "substantially lower"}
    ]},
    {"compound": "Dupixent: a monoclonal antibody that is administered subcutaneously", "values": [
      {"measurement": "upper respiratory tract infections", "setting": "[2]", "value": "18 % of patients"},
      {"measurement": "effective in patients", "setting": "[3]", "value": "60 % of patients"}
    ]},
    {"compound": "CCC(=O)O[C@]1(C(=O)SCF)[C@H](C)C[C@H]2[C@@H]3C[C@H](F)C4=CC(=O)C=C[C@]4(C)[C@@]3(F)[C@@H](O)C[C@@]21C", "note": "[fluticasone]", "values": [
      {"measurement": "first-pass metabolism", "setting": "[1]; by the liver", "value": "~ 99%"}
    ]},
    {"compound": "C[C@]12C=CC(=O)C=C1CC[C@H]1[C@@H]3C[C@@H](O)[C@](O)(C(=O)CO)[C@@]3(C)C[C@H](O)[C@@]12F", "note": "[triamcinolone]", "values": [
      {"measurement": "first pass metabolism, relative to fluticasone", "setting": "[1]", "value": "substantially lower"}
    ]}
  ]
}
